Reference: publication PMC8175350, “Drug repurposing screens identify chemical entities for the development of COVID-19 interventions” (Nature Communications, 2021)
Where “and” joins values, the source holds several entries; their conditions need not be identical. Equal values may be shown once. Read-outs that look alike come from different tables or passages of the source.

Experiments:
HeLa-ACE2 cells [1] = experiment: cells; assay type: cell-based, human; settings: Homo sapiens, HeLa-ACE2; read-out: HeLa-ACE2 TOA cell count EC50 GeoMean
in vitro [2] = settings: human
in vitro [3] = settings: human, Calu-3 uninfected cytotoxicity CC50 GeoMean
in vitro [4] = settings: human; remark: listed apart in the source
SARS-CoV-2 [5] = experiment: microbe, parasite or virus in culture; assay type: cell-based
Calu-3 cells [6] = experiment: cells; settings: Homo sapiens
SARS-CoV-2 [7] = experiment: Hamster lung RNA-Seq analysis; assay type: in vivo, Golden Syrian hamster; settings: 500 mg/kg
SARS-CoV-2 [8] = experiment: Hamster lung histopathology/infiltrate quantification (H&E, ImageJ); assay type: in vivo, Golden Syrian hamster; settings: 500 mg/kg
From the text: ImageJ (V1.53) software is used to quantify H&E-stained slide images (at ×20 magnification). Images are first converted to 8-Bit (Image > Type > 8-Bit), their threshold is adjusted (Image > Adjust > Threshold), a threshold value between 70–80% is chosen to ensure only dark stained nuclei are detected. Following thresholding the image is converted to a mask (Process > Binary > Convert to Mask) and analyzed (Analyze > Analyze Particles) with default settings, adding display results and show outline and the output was exported into GraphPad Prism (V9.0.0) where the nonparametric, two-sided Mann–Whitney statistical test was used to calculate significance.

Calu-3 cells [9] = system: Calu-3 cells
SARS-CoV-2 [10] = experiment: Hamster lung viral titer by plaque assay, day 5; assay type: in vivo, Golden Syrian hamster; settings: for SARS-CoV-2 viral load in lung by plaque quantification, individual animals: values look like log10
[11] = Uninfected HeLa-ACE2 24 h live/dead cytotoxicity counter screen; assay type: cell-based, human; settings: human, uninfected HeLa-ACE2 cells, detail block; read-out: HeLa-ACE2 uninfected cytotoxicity CC50 GeoMean
HeLa-ACE2 cells [12] = experiment: as above; assay type: cell-based, human; settings: HeLa-ACE2; concentration log[M] -8.59517; replicates
SARS-CoV-2 [13] = experiment: microbe, parasite or virus in culture; assay type: cell-based; remark: listed apart in the source
SARS-CoV-2 [14] = experiment: Golden Syrian hamster SARS-CoV-2 efficacy model, body weight; assay type: in vivo; settings: for group average % of starting weight: day 5 of infection
[15] = Pharmacokinetic studies in Syrian hamsters, PO; assay type: in vivo; settings: male, Syrian, hamster, in vivo
Method: Pharmacokinetic studies were conducted at Scripps Research Institute’s Animal Models Core in accordance with IACUC guidelines (IACUC Protocol #09-0004-5). Eight-week-old male Syrian Hamsters (Charles River; three per group) were dosed PO as indicated for each compound and formulation. Plasma concentration of each test article was monitored up to 48 h. Nelfinavir was formulated in 10% DMSO/90% corn oil and MK-4482 was formulated in 10% PEG400/2.5% Cremaphor RH40 for both pharmacokinetic and efficacy studies.

SARS-CoV-2 [16] = assay type: cell-based; settings: 72 hpi
SARS-CoV-2 [17] = experiment: microbe, parasite or virus in culture; assay type: cell-based; settings: for %infected: Calu-3, replicates n=1, n=2
HeLa-ACE2 cells [18] = experiment: cells; settings: Homo sapiens

SMILES: CC(C)C(=O)OC[C@H]1O[C@@H](n2ccc(NO)nc2=O)[C@H](O)[C@@H]1O [MK-4482]
- EC50 (HeLa-ACE2 cells [1]): > 9.59 µM
- CC50 at 72 h (in vitro [2]): > 39.8 µM
- CC50 at 48 h (in vitro [3]): > 29.9 µM
- CC50 at 72 h (in vitro [4]): > 39.8 µM
- Emax (SARS-CoV-2 [5]; Severe acute respiratory syndrome coronavirus 2, HeLa-ACE2, 24 h, curve plateau at infinite concentration, read-out: HeLa-ACE2 CoV-2 Sinf Average): 100%
- EC50 (SARS-CoV-2 [5]; Severe acute respiratory syndrome coronavirus 2, HeLa-ACE2, detail block, read-out: HeLa-ACE2 CoV-2 EC50 GeoMean): > 9.45 µM
- HeLa-ACE2 SI (SARS-CoV-2 [5]; selectivity index, uninfected HeLa-ACE2 CC50 / SARS-CoV-2 EC50): > 4.21
- Emax (Calu-3 cells [6]; Calu-3, 48 h, read-out: Calu-3 cell count Sinf Average): 100%
- EC50 (Calu-3 cells [6]; Calu-3, read-out: Calu-3 cell count EC50 GeoMean, detail block): > 9.98 µM
- genes significantly down regulated vs infected vehicle-treated controls (DESeq2) (SARS-CoV-2 [7]): 66 genes
- unsupervised hierarchical clustering of lung RNA-Seq samples (SARS-CoV-2 [7]): clustered together with uninfected samples
- histological examination of lungs (SARS-CoV-2 [8]): protected
- abundance of cellularity and infiltrates in the lungs (ImageJ) (SARS-CoV-2 [8]; MK-4482-treated, Hamster 1-4, individual images): 2983 and 5397 and 4186 and 5390 and 1931 and 4673 and 3775 and 5624 and 2350 and 4146 and 3662 and 5094 and 4440 and 4933 and 3481 and 5058 and 2520 and 4471 and 3837 and 4151 and 2838 and 4738 and 3878 and 3011 and 2773
- uninfected Calu-3 CC50 (Calu-3 cells [9]): > 29.85 ×÷ 1 (n=2) μM
- cytotox (Calu-3 cells [9]; human): -7.212
- viral reduction (SARS-CoV-2 [10]; 50 mg/kg PO BID, compared to vehicle control): 99%
- live viral titers in the lungs (SARS-CoV-2 [10]; 50 mg/kg PO BID, day 5, group average): 4.5 × 10^3 PFU/lung
- SARS-CoV-2 viral load in lung by plaque quantification, individual animals (SARS-CoV-2 [10]; 50 mg/kg, day 5): 4.176 and 0 and 3.653 and 4.477
- live viral titers in the lungs (SARS-CoV-2 [10]; 150 mg/kg PO BID, day 5): undetectable
- SARS-CoV-2 viral load in lung by plaque quantification, individual animals (SARS-CoV-2 [10]; 150 mg/kg, day 5): 0
- live viral titers in the lungs (SARS-CoV-2 [10]; 500 mg/kg PO BID, day 5): undetectable
- SARS-CoV-2 viral load in lung by plaque quantification, individual animals (SARS-CoV-2 [10]; 500 mg/kg, day 5): 0
- CC50 at 24 h [11]: > 39.8 µM
- cytotox (HeLa-ACE2 cells [12]): -0.706 and -12.7385 and -12.928 and 0.5106 and 4.684 and -11.4286 and -5.289 and -2.8 and 6.41
- TOA (SARS-CoV-2 [13]; HeLa-ACE2, log[M] -7.8551): 2.9089 and 4.102 and 5.064
- EC50 (SARS-CoV-2 [13]; Severe acute respiratory syndrome coronavirus 2, HeLa-ACE2, detail block, read-out: HeLa-ACE2 TOA CoV-2 EC50 GeoMean): > 9.59 µM
- TOA:HeLa-ACE2 EC50 Ratio (SARS-CoV-2 [13]; TOA EC50 / HeLa-ACE2 SARS-CoV-2 EC50): 1.014
- group average % of starting weight (SARS-CoV-2 [14]; 50 mg/kg PO BID): 90%
- Percent weight from day 0, individual animals (SARS-CoV-2 [14]; 50 mg/kg, Day 1): 100.619% and 100% and 99.9008% and 97.2408% and 100.231%
- Percent weight from day 0, individual animals (SARS-CoV-2 [14]; 50 mg/kg, Day 2): 97.6006% and 97.2498% and 96.3294% and 93.8963% and 97.0023%
- Percent weight from day 0, individual animals (SARS-CoV-2 [14]; 50 mg/kg, Day 3): 96.13% and 95.8747% and 93.0556% and 92.5585% and 94.3121%
- Percent weight from day 0, individual animals (SARS-CoV-2 [14]; 50 mg/kg, Day 4): 94.4272% and 93.9649% and 89.1865% and 91.7224% and 90.8532%
- Percent weight from day 0, individual animals (SARS-CoV-2 [14]; 50 mg/kg, Day 5): 93.4985% and 90.2215% and 86.4087% and 91.3043% and 88.9316%
- group average % of starting weight (SARS-CoV-2 [14]; 150 mg/kg PO BID): 89%
- Percent weight from day 0, individual animals (SARS-CoV-2 [14]; 150 mg/kg, Day 1): 99.3145% and 100.794% and 101.014% and 100.59% and 100.598%
- Percent weight from day 0, individual animals (SARS-CoV-2 [14]; 150 mg/kg, Day 2): 97.0009% and 97.9349% and 97.6599% and 97.2199% and 98.281%
- Percent weight from day 0, individual animals (SARS-CoV-2 [14]; 150 mg/kg, Day 3): 94.7729% and 96.1875% and 94.7738% and 95.7035% and 94.843%
- Percent weight from day 0, individual animals (SARS-CoV-2 [14]; 150 mg/kg, Day 4): 92.1165% and 92.5338% and 92.3635% and 94.524% and 91.4798%
- Percent weight from day 0, individual animals (SARS-CoV-2 [14]; 150 mg/kg, Day 5): 90.4884% and 88.2446% and 89.2356% and 90.9014% and 88.0419%
- group average % of starting weight (SARS-CoV-2 [14]; 500 mg/kg PO BID): 97%
- Percent weight from day 0, individual animals (SARS-CoV-2 [14]; 500 mg/kg, Day 1): 100.542% and 100.174% and 100.172% and 100.97% and 95.4962%
- Percent weight from day 0, individual animals (SARS-CoV-2 [14]; 500 mg/kg, Day 2): 100.619% and 100.174% and 98.4483% and 98.806% and 95.246%
- Percent weight from day 0, individual animals (SARS-CoV-2 [14]; 500 mg/kg, Day 3): 101.161% and 99.7394% and 97.8448% and 97.1642% and 96.9975%
- Percent weight from day 0, individual animals (SARS-CoV-2 [14]; 500 mg/kg, Day 4): 100.774% and 99.5656% and 97.1552% and 94.5522% and 97.9983%
- Percent weight from day 0, individual animals (SARS-CoV-2 [14]; 500 mg/kg, Day 5): 100.31% and 99.7394% and 95.9483% and 95.597% and 98.0817%
- Cl [15]: 401.00 mL/min/kg
- reduction in apical viral loads (SARS-CoV-2 [16]): > 1 log
- %infected (SARS-CoV-2 [17]; concentration log[M] -5.00096): -32.7882% and -37.4837% and -33.6325% and -41.3774% and -26.9927% and -42.8416%
- %infected (SARS-CoV-2 [17]; concentration log[M] -5.47808): -27.4805% and -3.693% and -9.149% and -11.3438% and 9.653% and -8.935%
- %infected (SARS-CoV-2 [17]; concentration log[M] -6.08014): 23.1125% and 4.59% and 25.286% and 17.3454% and 15.2546% and 10.3832%
- %infected (SARS-CoV-2 [17]; concentration log[M] -6.42922): 17.3493% and 17.6914% and 5.1734% and 5.136% and 26.2062% and 8.78%
- %infected (SARS-CoV-2 [17]; concentration log[M] -6.90623): 7.3785% and 13.9122% and -0.1637% and 2.863% and 27.9695% and 13.9935%
- %infected (SARS-CoV-2 [17]; concentration log[M] -7.50836): -8.777% and 19.9854% and 1.789% and 24.5386% and 23.5481% and -28.3332%
- %infected (SARS-CoV-2 [17]; concentration log[M] -7.85886): 17.2433% and 32.9409% and -21.7492% and 16.4627% and 42.3108% and 21.6153%
- %infected (SARS-CoV-2 [17]; concentration log[M] -8.33602): 11.8145% and 8.098% and -0.8953% and 19.1715% and 30.2349% and 22.7038%
- Emax (SARS-CoV-2 [17]; Severe acute respiratory syndrome coronavirus 2, Calu-3, 48 h, curve plateau at infinite concentration, read-out: Calu-3 CoV-2 Sinf Average): 100%
- EC50 (SARS-CoV-2 [17]; Severe acute respiratory syndrome coronavirus 2, Calu-3, detail block, read-out: Calu-3 CoV-2 EC50 GeoMean): > 9.98 µM
- Emax (HeLa-ACE2 cells [18]; HeLa-ACE2, 24 h, read-out: HeLa-ACE2 cell count Sinf Average): 100%
- EC50 (HeLa-ACE2 cells [18]; HeLa-ACE2, read-out: HeLa-ACE2 cell count EC50 GeoMean, detail block): > 9.59 µM
